Key:
Type in all cases: functional
MDA-MB-468 = assay: Cytotoxicity against human MDA-MB-468 cells assessed as cellular growth at 10 uM by SRB assay
T47D = assay: Cytotoxicity against human T47D cells assessed as cellular growth at 10 uM by SRB assay
BT-549 = assay: Cytotoxicity against human BT549 cells assessed as cellular growth at 10 uM by SRB assay
Hs-578T = assay: Cytotoxicity against human Hs578T cells assessed as cellular growth at 10 uM by SRB assay
MDA-MB-231 = assay: Cytotoxicity against human MDA-MB-231 cells assessed as cellular growth at 10 uM by SRB assay
MCF7 = assay: Cytotoxicity against human MCF7 cells assessed as cellular growth at 10 uM by SRB assay
DU-145 = assay: Cytotoxicity against human DU145 cells assessed as cellular growth at 10 uM by SRB assay
UO-31 = assay: Cytotoxicity against human UO31 cells assessed as cellular growth at 10 uM by SRB assay
PC-3 = assay: Cytotoxicity against human PC3 cells assessed as cellular growth at 10 uM by SRB assay
TK-10 = assay: Cytotoxicity against human TK10 cells assessed as cellular growth at 10 uM by SRB assay
SN12C = assay: Cytotoxicity against human SN12C cells assessed as cellular growth at 10 uM by SRB assay
RXF 393 = assay: Cytotoxicity against human RXF393 cells assessed as cellular growth at 10 uM by SRB assay
ACHN = assay: Cytotoxicity against human ACHN cells assessed as cellular growth at 10 uM by SRB assay
CAKI-1 = assay: Cytotoxicity against human Caki1 cells assessed as cellular growth at 10 uM by SRB assay
A498 = assay: Cytotoxicity against human A498 cells assessed as cellular growth at 10 uM by SRB assay
786-0 = assay: Cytotoxicity against human 786-0 cells assessed as cellular growth at 10 uM by SRB assay
SK-OV-3 = assay: Cytotoxicity against human SKOV3 cells assessed as cellular growth at 10 uM by SRB assay
[1] = Cytotoxicity against human NCI-ADR-RES cells assessed as cellular growth at 10 uM by SRB assay
OVCAR-8 = assay: Cytotoxicity against human OVCAR8 cells assessed as cellular growth at 10 uM by SRB assay
OVCAR-5 = assay: Cytotoxicity against human OVCAR5 cells assessed as cellular growth at 10 uM by SRB assay
OVCAR-3 = assay: Cytotoxicity against human OVCAR3 cells assessed as cellular growth at 10 uM by SRB assay
IGROV-1 = assay: Cytotoxicity against human IGROV1 cells assessed as cellular growth at 10 uM by SRB assay
UACC-62 = assay: Cytotoxicity against human UACC62 cells assessed as cellular growth at 10 uM by SRB assay
UACC-257 = assay: Cytotoxicity against human UACC257 cells assessed as cellular growth at 10 uM by SRB assay
SK-MEL-5 = assay: Cytotoxicity against human SK-MEL-5 cells assessed as cellular growth at 10 uM by SRB assay
SK-MEL-28 = assay: Cytotoxicity against human SK-MEL-28 cells assessed as cellular growth at 10 uM by SRB assay
SK-MEL-2 = assay: Cytotoxicity against human SK-MEL-2 cells assessed as cellular growth at 10 uM by SRB assay
MDA-MB-435 = assay: Cytotoxicity against human MDA-MB-435 cells assessed as cellular growth at 10 uM by SRB assay
M14 = assay: Cytotoxicity against human M14 cells assessed as cellular growth at 10 uM by SRB assay
Malme-3M = assay: Cytotoxicity against human MALME-3M cells assessed as cellular growth at 10 uM by SRB assay
LOX IMVI = assay: Cytotoxicity against human LOXIMVI cells assessed as cellular growth at 10 uM by SRB assay
U-251 = assay: Cytotoxicity against human U251 cells assessed as cellular growth at 10 uM by SRB assay
SNB-75 = assay: Cytotoxicity against human SNB75 cells assessed as cellular growth at 10 uM by SRB assay
SNB-19 = assay: Cytotoxicity against human SNB19 cells assessed as cellular growth at 10 uM by SRB assay
SF-539 = assay: Cytotoxicity against human SF539 cells assessed as cellular growth at 10 uM by SRB assay
SF-295 = assay: Cytotoxicity against human SF295 cells assessed as cellular growth at 10 uM by SRB assay
SF-268 = assay: Cytotoxicity against human SF268 cells assessed as cellular growth at 10 uM by SRB assay
SW-620 = assay: Cytotoxicity against human SW620 cells assessed as cellular growth at 10 uM by SRB assay
KM12 = assay: Cytotoxicity against human KM12 cells assessed as cellular growth at 10 uM by SRB assay
HT-29 = assay: Cytotoxicity against human HT-29 cells assessed as cellular growth at 10 uM by SRB assay
HCT-15 = assay: Cytotoxicity against human HCT15 cells assessed as cellular growth at 10 uM by SRB assay
HCT-116 = assay: Cytotoxicity against human HCT116 cells assessed as cellular growth at 10 uM by SRB assay
HCC 2998 = assay: Cytotoxicity against human HCC2998 cells assessed as cellular growth at 10 uM by SRB assay
NCI-H522 = assay: Cytotoxicity against human NCI-H522 cells assessed as cellular growth at 10 uM by SRB assay
COLO 205 = assay: Cytotoxicity against human COLO205 cells assessed as cellular growth at 10 uM by SRB assay
NCI-H460 = assay: Cytotoxicity against human NCI-H460 cells assessed as cellular growth at 10 uM by SRB assay
NCI-H322M = assay: Cytotoxicity against human NCI-H322M cells assessed as cellular growth at 10 uM by SRB assay
NCI-H226 = assay: Cytotoxicity against human NCI-H226 cells assessed as cellular growth at 10 uM by SRB assay
NCI-H23 = assay: Cytotoxicity against human NCI-H23 cells assessed as cellular growth at 10 uM by SRB assay
EKVX = assay: Cytotoxicity against human EKVX cells assessed as cellular growth at 10 uM by SRB assay
HOP-62 = assay: Cytotoxicity against human HOP62 cells assessed as cellular growth at 10 uM by SRB assay
A549 = assay: Cytotoxicity against human A549 cells assessed as cellular growth at 10 uM by SRB assay
SR = assay: Cytotoxicity against human SR cells assessed as cellular growth at 10 uM by SRB assay
MOLT-4 = assay: Cytotoxicity against human MOLT4 cells assessed as cellular growth at 10 uM by SRB assay
RPMI-8226 = assay: Cytotoxicity against human RPMI8226 cells assessed as cellular growth at 10 uM by SRB assay
K562 = assay: Cytotoxicity against human K562 cells assessed as cellular growth at 10 uM by SRB assay
HL-60(TB) = assay: Cytotoxicity against human HL-60(TB) cells assessed as cellular growth at 10 uM by SRB assay
CCRF-CEM = assay: Cytotoxicity against human CCRF-CEM cells assessed as cellular growth at 10 uM by SRB assay
OVCAR-4 = assay: Cytotoxicity against human OVCAR4 cells assessed as cellular growth at 10 uM by SRB assay

Cc1ccc(NC(=O)c2sc3nc4c(cc3c2N)C(=O)CCC4)cc1Cl
Activity (MDA-MB-468): 104.98%
Activity (T47D): 105.09%
Activity (BT-549): 114.66%
Activity (Hs-578T): 112.53%
Activity (MDA-MB-231): 113.04%
Activity (MCF7): 102.05%
Activity (DU-145): 108.78%
Activity (UO-31): 110.67%
Activity (PC-3): 103.74%
Activity (TK-10): 96.53%
Activity (SN12C): 119.21%
Activity (RXF 393): 117.2%
Activity (ACHN): 109.05%
Activity (CAKI-1): 85.93%
Activity (A498): 97.9%
Activity (786-0): 103.81%
Activity (SK-OV-3): 113.94%
Activity [1]: 103.82%
Activity (OVCAR-8): 103.45%
Activity (OVCAR-5): 100.98%
Activity (OVCAR-3): 112.77%
Activity (IGROV-1): 105.54%
Activity (UACC-62): 108.17%
Activity (UACC-257): 95.07%
Activity (SK-MEL-5): 101.61%
Activity (SK-MEL-28): 108.49%
Activity (SK-MEL-2): 112.11%
Activity (MDA-MB-435): 99.15%
Activity (M14): 121.85%
Activity (Malme-3M): 112.49%
Activity (LOX IMVI): 99.16%
Activity (U-251): 97.87%
Activity (SNB-75): 110.07%
Activity (SNB-19): 114.43%
Activity (SF-539): 102.38%
Activity (SF-295): 79.97%
Activity (SF-268): 115.11%
Activity (SW-620): 112.63%
Activity (KM12): 115.57%
Activity (HT-29): 97.53%
Activity (HCT-15): 97.31%
Activity (HCT-116): 105.04%
Activity (HCC 2998): 102.57%
Activity (NCI-H522): 96.14%
Activity (COLO 205): 127.7%
Activity (NCI-H460): 106.36%
Activity (NCI-H322M): 109.22%
Activity (NCI-H226): 101.89%
Activity (NCI-H23): 100.21%
Activity (EKVX): 86.19%
Activity (HOP-62): 110.02%
Activity (A549): 100.84%
Activity (SR): 105.35%
Activity (MOLT-4): 107.73%
Activity (RPMI-8226): 104.81%
Activity (K562): 92.98%
Activity (HL-60(TB)): 105.82%
Activity (CCRF-CEM): 104.3%

Cc1ccc(C(=O)/C=C2/Nc3ccc(C)cc3OC2=O)cc1
Activity (MDA-MB-468): 112.98%
Activity (T47D): 104.44%
Activity (BT-549): 108.86%
Activity (Hs-578T): 122.96%
Activity (MDA-MB-231): 88.3%
Activity (MCF7): 96.32%
Activity (DU-145): 118.59%
Activity (UO-31): 94.47%
Activity (PC-3): 101.93%
Activity (TK-10): 135.06%
Activity (SN12C): 96.84%
Activity (RXF 393): 112.41%
Activity (ACHN): 104.27%
Activity (CAKI-1): 96.63%
Activity (A498): 86.34%
Activity (786-0): 111.25%
Activity (SK-OV-3): 115.37%
Activity [1]: 108.28%
Activity (OVCAR-8): 102.51%
Activity (OVCAR-4): 96.74%
Activity (OVCAR-5): 120.4%
Activity (OVCAR-3): 116.56%
Activity (IGROV-1): 115.36%
Activity (UACC-62): 96.95%
Activity (UACC-257): 103.75%
Activity (SK-MEL-5): 100.21%
Activity (SK-MEL-28): 118.66%
Activity (SK-MEL-2): 123.75%
Activity (MDA-MB-435): 106.99%
Activity (M14): 106.88%
Activity (Malme-3M): 114.26%
Activity (LOX IMVI): 104.53%
Activity (U-251): 108.93%
Activity (SNB-75): 72.48%
Activity (SNB-19): 104.52%
Activity (SF-539): 108.44%
Activity (SF-295): 132.37%
Activity (SF-268): 110.95%
Activity (SW-620): 120.18%
Activity (KM12): 106.74%
Activity (HT-29): 106.8%
Activity (HCT-15): 110.94%
Activity (HCT-116): 110.04%
Activity (HCC 2998): 102.74%
Activity (NCI-H522): 100.47%
Activity (COLO 205): 120.49%
Activity (NCI-H460): 117.71%
Activity (NCI-H322M): 106.47%
Activity (NCI-H226): 108.24%
Activity (NCI-H23): 99.9%
Activity (EKVX): 92.88%
Activity (HOP-62): 115.04%
Activity (A549): 105.68%
Activity (SR): 100.89%
Activity (MOLT-4): 83.44%
Activity (RPMI-8226): 56.86%
Activity (K562): 95.07%
Activity (HL-60(TB)): 82.69%
Activity (CCRF-CEM): 77.12%

— ChEMBL document CHEMBL2202954, “The effect of PLC-γ2 inhibitors on the growth of human tumour cells” (2012)
